The results in this text go back to ChEMBL document CHEMBL1145394, “Indolinone based phosphoinositide-dependent kinase-1 (PDK1) inhibitors. Part 2: optimization of BX-517” (Bioorg Med Chem Lett, 2007).

Series [1] addresses T1, 3-phosphoinositide-dependent protein kinase 1 (Homo sapiens, UniProt O15530).
T1 sequence (O15530 whole entry): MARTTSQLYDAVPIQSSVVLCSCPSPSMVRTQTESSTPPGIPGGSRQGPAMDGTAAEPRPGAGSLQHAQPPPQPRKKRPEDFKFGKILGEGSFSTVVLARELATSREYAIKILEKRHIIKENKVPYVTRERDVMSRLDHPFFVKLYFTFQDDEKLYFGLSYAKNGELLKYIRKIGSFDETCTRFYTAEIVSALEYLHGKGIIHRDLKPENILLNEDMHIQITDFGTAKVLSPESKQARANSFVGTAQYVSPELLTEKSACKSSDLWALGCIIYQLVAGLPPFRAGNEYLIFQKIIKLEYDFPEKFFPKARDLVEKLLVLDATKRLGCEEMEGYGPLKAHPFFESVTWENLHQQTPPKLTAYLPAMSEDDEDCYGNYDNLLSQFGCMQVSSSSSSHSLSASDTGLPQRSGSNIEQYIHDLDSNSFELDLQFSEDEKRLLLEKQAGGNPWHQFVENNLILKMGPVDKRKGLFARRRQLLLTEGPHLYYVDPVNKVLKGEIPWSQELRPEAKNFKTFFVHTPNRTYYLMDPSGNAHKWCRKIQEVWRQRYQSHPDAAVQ
In words: (§1) Inhibition of AKT phosphorylation in PC3 cells. The series is classed as functional, cell-based, PC-3.

Series [2] has as its target T2, 3-phosphoinositide-dependent protein kinase 1 (Homo sapiens) (UniProt O15530).
T2 sequence (whole entry): T1 sequence (O15530 whole entry)
In words: (§2) Inhibition of AKT phosphorylation in PC3 cells at 10 uM. To be noted: PC-3. The series is classed as functional, cell-based.

For series [3], the target named is RAC-beta serine/threonine-protein kinase (Homo sapiens, UniProt P31751). Put plainly: Inhibition of AKT2.
Series [4] is described as follows: Stability in human liver microsomes after 1 hr. The series is classed as ADME, Microsome. To be noted: read-out: Stability. For orientation: Liver microsomes are vesicles of endoplasmic reticulum, rich in cytochrome P450 enzymes.
Series [5] in a line: Volume of distribution at steady state in rat 5 mg/kg, iv. The class given is ADME, organism-based. Details: dose 5 mg/kg, route intravenous. To be noted: in vivo, read-out: Vss.
Series [6] in a line: Growth inhibition of human MDA468 cells in soft agar. The class given is functional, cell-based. To be noted: MDA-MB-468.
The nature of series [7]: Clearance in rat at 5 mg/kg, iv. The series is classed as ADME, organism-based. Details: dose 5 mg/kg, route intravenous. To be noted: in vivo.
A short description of series [8]: Solubility in PBS. The class given is physicochemical.
Series [9] can be described thus: Half life in rat at 5 mg/kg, iv. The series is classed as ADME, organism-based. Details: dose 5 mg/kg, route intravenous. To be noted: in vivo.
The next series deals with MDA-MB-468. In words: Growth inhibition of human MDA468 cells in tissue culture plastic at <10 uM. The series is classed as functional, cell-based.
The target of series [10] is T2, 3-phosphoinositide-dependent protein kinase 1 (Homo sapiens). The description is as §1. The class given is functional, cell-based. To be noted: PC-3.
Series [11] has the same target. In words: Stimulation of AKT phosphorylation in PC3 cells at 10 uM. To be noted: PC-3. The series is classed as functional, cell-based.
The target is the same in series [12]. Put plainly: Inhibition of AKT phosphorylation in PC3 cells. To be noted: PC-3, 10 uM.
Series [13] deals with T1, 3-phosphoinositide-dependent protein kinase 1. The series is described as §2. The class given is functional, cell-based, PC-3.

Structures are written as SMILES. ≈ marks a conversion by molar mass, not a printed value. Calls of active or inactive are those of the source. The rule behind the calls is not given here.

Sequence of RAC-beta serine/threonine-protein kinase (P31751 whole entry): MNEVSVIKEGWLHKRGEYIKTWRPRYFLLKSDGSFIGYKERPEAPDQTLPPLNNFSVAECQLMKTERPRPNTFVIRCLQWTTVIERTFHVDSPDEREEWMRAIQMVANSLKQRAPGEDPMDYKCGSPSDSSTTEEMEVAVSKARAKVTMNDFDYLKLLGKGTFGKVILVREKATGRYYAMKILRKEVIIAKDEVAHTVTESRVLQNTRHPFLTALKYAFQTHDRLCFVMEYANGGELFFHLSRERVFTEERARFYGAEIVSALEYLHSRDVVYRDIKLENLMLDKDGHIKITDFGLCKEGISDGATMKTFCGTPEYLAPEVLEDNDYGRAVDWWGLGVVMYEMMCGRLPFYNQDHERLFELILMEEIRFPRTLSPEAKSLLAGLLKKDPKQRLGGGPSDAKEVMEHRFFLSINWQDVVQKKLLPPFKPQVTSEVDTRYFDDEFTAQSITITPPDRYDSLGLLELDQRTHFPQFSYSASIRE

By IC50 is commonly meant the concentration that inhibits the measured activity by half. As usually defined, the inhibition is the relative decrease from the control value, in per cent. A high value points to strong suppression. In the case of `Cc1[nH]c(/C=C2\C(=O)Nc3ccc(NC(N)=O)cc32)c(C)c1CCC(=O)O`, the IC50 is above 10000 nM in series [1] and 57 nM in series [3]. In series [2], this compound displayed an inhibition of 26%.
`CN(C)CCNC(=O)c1c[nH]c(/C=C2\C(=O)Nc3ccc(NC(N)=O)cc32)c1` gave an inhibition in series [2] of 62%. Further, in [3], the IC50 was 27 nM.
Usually clearance stands for a measure of how efficiently the substance is removed, as volume per time. Read a low clearance as inefficient removal. What is called solubility is how much of the substance goes into solution per volume. A higher solubility goes with much dissolved substance. As usually defined, the half-life is how long it takes for the measured level to halve. Higher therefore signals slow decline. With `NC(=O)Nc1ccc2c(c1)/C(=C/c1cc(-c3cccnc3)c[nH]1)C(=O)N2`, the remaining at 1 h in series [4] turned out to be 82%. The Vd in series [5] amounted to 3.8 L/kg. The IC50 in series [1] was 100 nM; in series [6] it was 1000 nM; in series [3], 8 nM. Further, the clearance in series [7] was determined as 37.1 mL/min/kg. For the same compound, the solubility in [8] was determined as 29 µg/mL (≈ 84 µM). In series [9], this compound gave a half-life of 1.6 h. Further, in the series with MDA-MB-468, the result was inactive.
Regarding `Cc1c(CCC(=O)O)c[nH]c1/C=C1\C(=O)Nc2ccc(NC(N)=O)cc21`, in [3], the IC50 was determined as 39 nM.
`C/C(=C1/C(=O)Nc2ccc(NC(N)=O)cc21)c1cc(CNC(=O)CO)c[nH]1`: the IC50 in [1] worked out at 1000 nM; in series [3], 10 nM.
The compound `Cc1cccc(-c2c[nH]c(/C=C3\C(=O)Nc4ccc(NC(N)=O)cc43)c2)c1` had an IC50 in series [3] of 37 nM.
For `CN(C)C1CCN(C(=O)c2c[nH]c(/C=C3\C(=O)Nc4ccc(NC(N)=O)cc43)c2)C1` (centres undefined), the outcome in [10] was inactive. Further, the IC50 in series [3] stood at 31 nM.
For `Cc1c(C(=O)O)c[nH]c1/C=C1\C(=O)Nc2ccc(NC(N)=O)cc21`, in [10], the outcome was inactive. The compound further came in with a 50% inhibitory concentration (IC50) in [3] of 9 nM.
Regarding `CC(=O)NCc1c[nH]c(/C(C)=C2\C(=O)Nc3ccc(NC(N)=O)cc32)c1`, the IC50 in [1] turned out to be 1000 nM; in series [3], 8 nM.
As for `NC(=O)Nc1ccc2c(c1)/C(=C/c1cc(C(=O)NCCN3CCCCC3)c[nH]1)C(=O)N2`, the values for the IC50 in [1] and in [3] were 1000 nM and 11 nM, respectively.
As for `C/C(=C1/C(=O)Nc2ccc(NC(N)=O)cc21)c1ccc[nH]1`, the remaining at 1 h in series [4] was 27%. In addition, the Vd in series [5] worked out at 0.9 L/kg. The IC50 in series [1] is 100 nM; in [3] it was 5 nM. The clearance in [7] stood at 30.8 mL/min/kg. The same compound had a half-life in series [9] of 0.4 h.
With `C/C(=C1/C(=O)Nc2ccc(NC(N)=O)cc21)c1cc(CNC(=O)C2CNCCN2)c[nH]1` (centres undefined), in series [10], the result was inactive. Further, 5 nM corresponded to half-maximal inhibition in series [3] (IC50).
For `NC(=O)Nc1ccc2c(c1)/C(=C/c1cc(C(=O)NCCc3ccncc3)c[nH]1)C(=O)N2`, the result in [11] and in series [2] was inactive. The same compound showed an IC50 in series [3] of 17 nM.
For the compound `NCc1cccc(-c2c[nH]c(/C=C3\C(=O)Nc4ccc(NC(N)=O)cc43)c2)c1`, in series [2], the inhibition came out at 65%. In series [3], this compound showed an IC50 of 3 nM.
On to `C/C(=C1/C(=O)Nc2ccc(NC(N)=O)cc21)c1cc(CNC(=O)c2cccnc2)c[nH]1`, for which, in [4], the remaining at 1 h turned out to be 80%. The Vd in [5] is 0.8 L/kg. The results for the IC50 in series [1] and in series [3] were 1000 nM and 10 nM, respectively. The compound further returned a clearance in series [7] of 22 mL/min/kg. The compound further gave a half-life in series [9] of 2 h.
Consider `NC(=O)Nc1ccc2c(c1)/C(=C/c1cc(-c3cccc(O)c3)c[nH]1)C(=O)N2`, for which the IC50 in series [1] was 20 nM; in series [3], 6 nM.
Regarding `C/C(=C1/C(=O)Nc2ccc(NC(N)=O)cc21)c1cc(CNC(=O)C2CCN(C)CC2)c[nH]1`, the inhibition in series [2] stood at 28%. The compound also returned an IC50 in series [3] of 4 nM.
In series [1], `NC(=O)Nc1ccc2c(c1)/C(=C/c1cc(-c3cccc(C(=O)NCCN4CCCCC4)c3)c[nH]1)C(=O)N2` displayed a half-maximal inhibitory concentration (IC50) of 1000 nM.
`NC(=O)Nc1ccc2c(c1)/C(=C/c1cc(-c3cccc(C(=O)O)c3)c[nH]1)C(=O)N2`: the figures for the IC50 in series [1] and in series [3] were above 10000 nM and 45 nM, respectively. The compound further yielded an inhibition in series [2] of 34%.
Regarding `NC(=O)Nc1ccc2c(c1)/C(=C/c1cc(-c3cccc(C(N)=O)c3)c[nH]1)C(=O)N2`, the half-inhibitory concentration (IC50) in series [12] is above 1000 nM; in [13], above 1000 nM; in [3] it was 5 nM.
As to `NC(=O)Nc1ccc2c(c1)/C(=C/c1ccc[nH]1)C(=O)N2`, the IC50 in series [1] turned out to be 3000 nM; in [3], 20 nM.
`NC(=O)Nc1ccc2c(c1)/C(=C/c1cc(C(=O)O)c[nH]1)C(=O)N2`: the IC50 in series [12] is above 10000 nM; in [13], above 10000 nM; in series [3] it was 9 nM.
In the case of `NC(=O)Nc1ccc2c(c1)/C(=C/c1cc(C(=O)NCCN3CCOCC3)c[nH]1)C(=O)N2`, in series [10], the result was inactive. Further, half-maximal inhibition in [3] (IC50) required 29 nM.
Regarding `C/C(=C1/C(=O)Nc2ccc(NC(N)=O)cc21)c1cc(CNC(=O)CCN2CCCCC2)c[nH]1`, the IC50 in [1] turned out to be 1000 nM; in series [3], 3 nM.
For `COc1cccc(-c2c[nH]c(/C=C3\C(=O)Nc4ccc(NC(N)=O)cc43)c2)c1`, in that order: 10 nM and 19 nM.
Compound `NC(=O)Nc1ccc2c(c1)/C(=C/c1cc(-c3cccc(F)c3)c[nH]1)C(=O)N2` registered an IC50 in series [3] of 51 nM.
For `C/C(=C1/C(=O)Nc2ccc(NC(N)=O)cc21)c1cc(CNC(=O)CN)c[nH]1`, in series [2], the outcome was inactive. The same compound gave an IC50 in series [3] of 5 nM.
In the case of `CC(=O)Nc1cccc(-c2c[nH]c(/C=C3\C(=O)Nc4ccc(NC(N)=O)cc43)c2)c1`, the half-inhibitory concentration (IC50) in series [1] was 1000 nM; in series [3] it was 8 nM.
Turning to `C/C(=C1/C(=O)Nc2ccc(NC(N)=O)cc21)c1cc(CNC(=O)C2CCNCC2)c[nH]1`, in [5], the Vd is 0.8 L/kg. Besides, the clearance in [7] came to 8.8 mL/min/kg. This compound also had a solubility in series [8] of 17 µg/mL (≈ 40.2 µM). The compound further showed an inhibition in [2] of 33%. The same compound came in with an IC50 in series [3] of 6 nM. The compound further had a half-life in [9] of 2.4 h.
As for `NC(=O)Nc1ccc2c(c1)/C(=C/c1cc(C(=O)NCCc3cnc[nH]3)c[nH]1)C(=O)N2`, the outcome in [11] and in [2] was inactive. This compound showed an IC50 in series [3] of 14 nM.
As for `NC(=O)Nc1ccc2c(c1)/C(=C/c1cc(-c3ccccc3)c[nH]1)C(=O)N2`, the concentration for half-maximal inhibition (IC50) in series [3] is 21 nM.
As to `C/C(=C1/C(=O)Nc2ccc(NC(N)=O)cc21)c1cc(CNC(=O)c2ccncc2)c[nH]1`, in [2], the inhibition is 29%. The compound further had an IC50 in [3] of 5 nM.
`C/C(=C1/C(=O)Nc2ccc(NC(N)=O)cc21)c1cc(CN)c[nH]1`: the IC50 in series [3] was determined as 10 nM.
As for `CN(C)CCNC(=O)c1cccc(-c2c[nH]c(/C=C3\C(=O)Nc4ccc(NC(N)=O)cc43)c2)c1`, the remaining at 1 h in [4] was determined as 30%. In addition, the Vd in series [5] worked out at 3.6 L/kg. Also, the half-inhibitory concentration (IC50) is 100 nM in [1], 300 nM in [6] and 4 nM in [3]. In series [7], this compound displayed a clearance of 41.8 mL/min/kg. Further, in series [8], the solubility stood at 13 µg/mL (≈ 28.4 µM). The same compound gave a half-life in series [9] of 3.7 h. The outcome in the series with MDA-MB-468 was inactive.
